Tests used:
[1] = system: SW780 cells (FGFR3-BAIAP2L1 fusion); assay: Cell proliferation assay (WST-1), FGFR inhibition; type: cell-based; details: 0, 5, 25, 100 nM
Protocol: For validation of fusion transcripts, quantitative RT-PCR assays were performed. Total cDNAs of index cases and negative control samples were synthesized using SuperScript III System according to the manufacturer's instructions (Invitrogen). Quantitative RT-PCR was performed using fusion-specific primers (Table 15) with SYBR Green Master Mix (Applied Biosystems) on the StepOne Real-Time PCR System (Applied Biosystems). The PCR products were further analyzed by agarose gel electrophoresis. Relative mRNA levels of the fusion transcripts were normalized to the expression of the housekeeping gene GAPDH. Inhibition of FGFR receptors and cell proliferation assay Bladder cancer cells SW780, J82, and HT1197 were seeded into 96-well plates in triplicate and allowed to attach before drug treatment. The FGFR inhibitor PD173074 (Selleck Chemicals) was added to the cultures at concentrations of 0, 5, 25, and 100 nM. Relative cell numbers were measured by WST-1 assays at indicated time points following the manufacturer's instructions (Roche).

J82 xenografts = assay: Mouse xenograft model, tumor growth; type: in vivo, C.B17/SCID mice; details: increasing doses, intraperitoneal
Protocol: (§1) Five week-old male C.B17/SCID mice were procured from a breeding colony at University of Michigan, maintained by Dr. Kenneth Pienta. Mice were anesthetized using a cocktail of xylazine ([…], intraperitoneal) and ketamine (10 mg/kg, intraperitoneal) for chemical restraint. Bladder cancer cells SW780 (2 million cells for each implantation site) or J82 (5 million cells for each implantation site) were resuspended in 100 μl of 1×PBS with 20% Matrigel (BD Biosciences) and were implanted subcutaneously into flank region on both sides. Eight mice were included in each experimental group. All tumors were staged for two weeks (SW780 cells) and three weeks (J82 cells) before starting the drug treatment. Xenografted mice with palpable tumors were treated with a FGFR inhibitor PD173074 (Selleck Chemicals) dissolved in 5% ethanol in corn oil (intraperitoneal). Mice in control group received 5% ethanol in corn oil as vehicle control. Tumor growth was recorded weekly by using digital calipers and tumor volumes were calculated using the formula (π/6) (L×W2), where L=length of tumor and W=width. Any decrease in the body weight of mice was monitored bi-weekly during the course of the study. All experimental procedures involving mice were approved by the University Committee on Use and Care of Animals (UCUCA) at the University of Michigan and conform to their relevant regulatory standards.

SW780 xenografts = assay: Mouse xenograft model, tumor growth; type: in vivo, C.B17/SCID mice; details: increasing doses, intraperitoneal
Protocol: as §1

Q: `CCN(CC)CCCCNc1ncc2cc(-c3cc(OC)cc(OC)c3)c(NC(=O)NC(C)(C)C)nc2n1` [PD173074] was tested. Which “sensitivity of cell line to FGFR inhibitor (cell proliferation)” value [1] did it give?
A: sensitive to nanomolar concentrations

Q: What about the “sensitivity of cell line to FGFR inhibitor (cell proliferation)” value ([1]; listed as PD 173074) of the same compound?
A: enhanced sensitivity

Q: What about the xenograft tumor growth (J82 xenografts) of the same compound?
A: did not

Q: What about the xenograft tumor growth (SW780 xenografts) of the same compound?
A: decreased tumor growth
